Results from patent US7211602B2, “Treatment of neurodegenerative disorders through the modulation of the polyamine pathway” (ALS Therapy Development Foundation, Inc., priority 2001, dated 2007).
Where two headings read alike, the source gives them in different places.

Legend:
[1] = system: SOD1 G93A mice
From the text: • (i) Model Description: The SOD1 G93A (high copy) mouse model was used as the model for ALS. This mouse model carries 25 copies of the human G93A SOD mutation and is driven by the endogenous promoter. Survival in the mouse is copy dependent. The high copy G93A has a median survival of around 128 days. High molecular weight complexes of mutant SOD protein are seen in the spinal cord beginning around day 30. At day 60 reactive astrocytosis (GFAP reactive) are observed; activated microglia are observed from day 90 onwards.
DFMO was obtained in oral form from ILEX Oncology, Inc (San Antonio, Tex.). • (iv) Methods: Forty (n=40) SOD1 G93A high copy mice obtained from Jackson Laboratory (Bar Harbor, Me.) were separated into two groups of twenty (n=20) with an equal number of males (n=10) and females (n=10) in each group. The groups were also litter matched to reduce group variation. Male animals were singly housed and females were group housed to conserve space. […] When animals had difficulty in moving and taking care of themselves chow and water were replaced with food pellets in bedding and Jell-O for water. • (v) Pharmacological Agent Delivery: All pharmacological agents were administered to SOD1 G93A mice. DFMO was delivered according to a chronic delivery protocol applied in the human glioblastoma trial (UCSF Clinical trial protocol of ALS).
In Example 2, the animals were dosed at 3200 mg/Kg/day of DFMO in drinking water for 21 days followed by a 7 day drug holiday (no DFMO). In Example 3, the animals were continually dosed at 3200 mg/Kg/day of DFMO in drinking water. Controls animals were given water as vehicle. All treatments are performed 7 days per week and treatment was initiated at day 60 of life. The treated group continued to receive 3200 mg/kg/day of DFMO in drinking water until a neurological score of 2 (See section (vi) below) at which point drug was delivered via intraperitineal injection (IP) injection. When a neurological score of 2 is attained, the animals are no longer capable of drinking themselves due to paralysis. At this point, the same dosage of DFMO is administered to the animal in IP injection form. Controls were given water as vehicle until a neurological score of 2 at which point they were injected with saline as vehicle.
In Example 6, hydroxyurea was administered by intraperitineal injection at a dose of 250 mg/Kg/day once daily for 7 days a week, beginning at day 50 until day 110.
The animals are sacrificed at this stage if alive. • (vii) End Points and Statistics: The primary end point is survival with secondary end points of neurological score and body weight. Neurological score observations and body weight are made and recorded five days per week. • (viii) Statistical Analysis: Statistical analysis on body weight and neurological score was performed using mixed linear model repeated measure ANOVA. Survival analysis was performed by Kaplan-Meier analysis using the frailty model for sex and litter correction.

[2] = system: patients with advanced non-small cell lung cancer; conditions: Hahm et al. 2002; cited from earlier work
[3] = system: ODC; conditions: cited from earlier work

In the case of `NCCCC(N)(C(=O)O)C(F)F` (racemic) [DFMO, 2-(Difuoromethyl)-DL-ornithine], the “effect in male mice, ongoing IP injection study” value ([1]; IP injection, 3200 mg/kg, male mice) is reported as “positive male trend”, the “Percent survival analysis: life span” value ([1]; continuous dosing 3200 mg/Kg/day in drinking water, no drug holiday, until death, FIGS. 4, 6 and 8) is reported as “extended the life span” and the “Neurological score analysis, combined male and female” value ([1]; continuous dosing 3200 mg/Kg/day, combined male and female, FIG. 5) is reported as “protective”. The “Neurological score analysis, female” value ([1]; continuous dosing 3200 mg/Kg/day, FIG. 9) was “protective”, the “Neurological score analysis, male” value ([1]; continuous dosing 3200 mg/Kg/day, male, FIG. 7) was “protective” and the “Neurological score analysis, combined results” value ([1]; discontinuous dosing 3200 mg/Kg/day, combined male and female mice) was “No effect”. The “Neurological score analysis, female mice” value ([1]; discontinuous dosing 3200 mg/Kg/day, female mice, during the drug delivery period, FIG. 3) was “protective”, the “Neurological score analysis, male mice” value ([1]; discontinuous dosing 3200 mg/Kg/day, male mice) was “No effect” and the “Percent survival analysis: onset of disease and survival” value ([1]; discontinuous dosing, 3200 mg/Kg/day in drinking water, 21 days on / 7 day holiday, FIG. 2) was “delays the onset of disease and extends the survival”. For the same compound, the “deaths of animals in the treatment group that occurred during the drug holiday or a few days immediately succeeding the holiday” value ([1]; female SOD1 G93A mice, 3200 mg/Kg/day in drinking water for 21 days followed by 7 day drug holiday, control group 30%, FIG. 2) was 70%.
In the case of `CCNCCCNCCCNCCCNCC` [DENSPM, N(1),N(11)-diethylnorspermine], the “safety of administration to patients” value [2] is given as “minimal toxicity”, the “Neurological score analysis, female” value ([1]; intraperitoneal 24 mg/kg/day twice daily till death, FIG. 13) is given as “protective” and the “Percent survival analysis: onset of disease and survival” value ([1]; intraperitoneal 24 mg/kg/day twice daily, 7 days a week till death, female mice, FIG. 12) is given as “delays the onset of disease and extends the survival”.
With `NC(=O)NO` [hydroxyurea] the “Percent survival analysis: life span” value ([1]; intraperitoneal 250 mg/Kg/day once daily, day 50 until day 110, female mice, FIG. 10) was “extended the life span” and the “Neurological score analysis, female” value ([1]; intraperitoneal 250 mg/Kg/day once daily, day 50 until day 110, FIG. 11) was “protective”.
For `NCCCCNCCCN` [spermidine], the “concentration in the culture medium that can inhibit ODC production for hours” value [3] is listed as 50 µM.
